From ChEMBL document CHEMBL5223117, “Synthesis and biological evaluation of novel N, N'-diarylurea derivatives as potent antibacterial agents against MRSA” (Bioorg Med Chem Lett, 2022)
Values after ≈ are worked out from the molar mass of the structure shown.

Tests used:
Enterococcus faecium [1] = experiment: Antibacterial activity against Vanomycin-resistant Enterococcus faecium ATCC 700221; format: functional
Staphylococcus aureus [2] = experiment: Antibacterial activity against vancomycin intermediate and methicillin resistant Staphylococcus aureus ATCC 700698; format: functional
Enterococcus faecalis [3] = experiment: Antibacterial activity against Vanomycin-resistant Enterococcus faecalis ATCC 51575; format: functional
Staphylococcus aureus [4] = experiment: Antibacterial activity against methicillin resistant Staphylococcus aureus ATCC 33591; format: functional
Staphylococcus aureus [5] = experiment: Bactericidal activity against methicillin resistant Staphylococcus aureus 16-30; format: functional
[6] = test system: Staphylococcus epidermidis; experiment: Antibacterial activity against methicillin sensitive Staphylococcus epidermidis ATCC 12228; format: functional
Staphylococcus aureus [7] = experiment: Antibacterial activity against methicillin sensitive Staphylococcus aureus ATCC 33591; format: functional
Staphylococcus aureus [8] = experiment: Antibacterial activity against methicillin resistant Staphylococcus aureus ATCC 43300; format: functional
Staphylococcus aureus [9] = experiment: Antibacterial activity against methicillin sensitive Staphylococcus aureus 15; format: functional
Staphylococcus aureus [10] = experiment: Bactericidal activity against methicillin resistant Staphylococcus aureus ATCC 43300; format: functional
Staphylococcus aureus [11] = experiment: Antibacterial activity against methicillin sensitive Staphylococcus aureus ATCC 29213; format: functional
Staphylococcus aureus [12] = experiment: Bactericidal activity against methicillin resistant Staphylococcus aureus ATCC 33591; format: functional
Staphylococcus aureus [13] = experiment: Selectivity ratio of MBC for bactericidal activity against methicillin resistant Staphylococcus aureus 16-30 to MIC for antibacterial activity against methicillin resistant Staphylococcus aureus 16-30; format: functional
Enterococcus faecalis [14] = experiment: Antibacterial activity against Vanomycin-resistant Enterococcus faecalis ATCC 51299; format: functional
Staphylococcus aureus [15] = experiment: Bactericidal activity against vancomycin intermediate and methicillin resistant Staphylococcus aureus ATCC 700698; format: functional
[16] = test system: Staphylococcus epidermidis; experiment: Antibacterial activity against methicillin sensitive Staphylococcus epidermidis 17-13; format: functional
Staphylococcus aureus [17] = experiment: Antibacterial activity against methicillin sensitive Staphylococcus aureus 20-12; format: functional
Staphylococcus aureus [18] = experiment: Selectivity ratio of MBC for bactericidal activity against methicillin resistant Staphylococcus aureus ATCC 43300 to MIC for antibacterial activity against methicillin resistant Staphylococcus aureus ATCC 43300; format: functional
Staphylococcus aureus [19] = experiment: Antibacterial activity against vancomycin intermediate and methicillin resistant Staphylococcus aureus ATCC 700699; format: functional
Staphylococcus aureus [20] = experiment: Selectivity ratio of MBC for bactericidal activity against vancomycin intermediate and methicillin resistant Staphylococcus aureus ATCC 700698 to MIC for antibacterial activity against vancomycin intermediate and methicillin resistant Staphylococcus aureus ATCC 700698; format: functional
Enterococcus faecium [21] = experiment: Bactericidal activity against Vanomycin-resistant Enterococcus faecium ATCC 700221; format: functional
[22] = Cytotoxicity against human HepG2 cells by SRB assay; format: toxicity, cell-based
Staphylococcus aureus [23] = experiment: Antibacterial activity against methicillin resistant Staphylococcus aureus 20-11; format: functional
Staphylococcus aureus [24] = experiment: Selectivity ratio of MBC for bactericidal activity against methicillin resistant Staphylococcus aureus ATCC 33591 to MIC for antibacterial activity against methicillin resistant Staphylococcus aureus ATCC 33591; format: functional
Enterococcus faecalis [25] = experiment: Selectivity ratio of MBC for bactericidal activity against Vanomycin-resistant Enterococcus faecalis ATCC 51299 to MIC for antibacterial activity against Vanomycin-resistant Enterococcus faecalis ATCC 51299; format: functional
Enterococcus faecalis [26] = experiment: Bactericidal activity against Vanomycin-resistant Enterococcus faecalis ATCC 51299; format: functional
Enterococcus faecium [27] = experiment: Antibacterial activity against Vanomycin-resistant Enterococcus faecium ATCC 51559; format: functional
[28] = test system: Staphylococcus epidermidis; experiment: Antibacterial activity against methicillin resistant Staphylococcus epidermidis 19-1; format: functional
Enterococcus faecium [29] = experiment: Antibacterial activity against Vanomycin-resistant Enterococcus faecium 15-6; format: functional
[30] = Cytotoxicity against human HeLa cells by SRB assay; format: toxicity, cell-based
[31] = test system: Staphylococcus epidermidis; experiment: Antibacterial activity against methicillin resistant Staphylococcus epidermidis 19-2; format: functional
Staphylococcus aureus [32] = experiment: Antibacterial activity against methicillin resistant Staphylococcus aureus 18-2; format: functional
Enterococcus faecium [33] = experiment: Selectivity ratio of MBC for bactericidal activity against Vanomycin-resistant Enterococcus faecium ATCC 700221 to MIC for antibacterial activity against Vanomycin-resistant Enterococcus faecium ATCC 700221; format: functional
Staphylococcus aureus [34] = experiment: Antibacterial activity against methicillin resistant Staphylococcus aureus 16-30; format: functional

Compound	MIC (Enterococcus faecium [1])	MIC (Staphylococcus aureus [2])	MIC (Enterococcus faecalis [3])	MIC (Staphylococcus aureus [4])	MBC (Staphylococcus aureus [5])	MIC [6]	MIC (Staphylococcus aureus [7])	MIC (Staphylococcus aureus [8])	MIC (Staphylococcus aureus [9])	MBC (Staphylococcus aureus [10])	MIC (Staphylococcus aureus [11])	MBC (Staphylococcus aureus [12])	Ratio (Staphylococcus aureus [13])	MIC (Enterococcus faecalis [14])	MIC [16]	MIC (Staphylococcus aureus [17])	Ratio (Staphylococcus aureus [18])	MIC (Staphylococcus aureus [19])	IC50 [22]	MIC (Staphylococcus aureus [23])	further results
O=C(Nc1ccc(OC(F)(F)F)cc1)Nc1ccc(Cl)c(C(F)(F)F)c1	1.25 µM (≈ 0.498 µg/mL)	0.63 µM (≈ 0.251 µg/mL)	2.51 µM (≈ 1 µg/mL)	1.25 µM (≈ 0.498 µg/mL)	> 80.3 µM	1.25 µM (≈ 0.498 µg/mL)	1.25 µM (≈ 0.498 µg/mL)	0.63 µM (≈ 0.251 µg/mL)	1.25 µM (≈ 0.498 µg/mL)	> 161 µM	0.63 µM (≈ 0.251 µg/mL)	> 161 µM	>32	2.51 µM (≈ 1 µg/mL)	0.63 µM (≈ 0.251 µg/mL)	1.25 µM (≈ 0.498 µg/mL)	>255	0.15 µM (≈ 0.0598 µg/mL)	6.27 µM	0.63 µM (≈ 0.251 µg/mL)	MBC (Staphylococcus aureus [15]): > 161 µM; Ratio (Staphylococcus aureus [20]): >255; MBC (Enterococcus faecium [21]): > 321 µM; Ratio (Staphylococcus aureus [24]): >128; Ratio (Enterococcus faecalis [25]): >128; MBC (Enterococcus faecalis [26]): > 321 µM; MIC (Enterococcus faecium [27]): 2.51 µM (≈ 1 µg/mL); MIC [28]: 1.25 µM (≈ 0.498 µg/mL); MIC (Enterococcus faecium [29]): 2.51 µM (≈ 1 µg/mL); IC50 [30]: 9.31 µM; MIC [31]: 1.25 µM (≈ 0.498 µg/mL); MIC (Staphylococcus aureus [32]): 0.3 µM (≈ 0.12 µg/mL); Ratio (Enterococcus faecium [33]): >257; MIC (Staphylococcus aureus [34]): 2.51 µM (≈ 1 µg/mL)
O=C(Nc1ccc(Cl)c(C(F)(F)F)c1)Nc1cc(F)c(F)c(F)c1F	1.29 µM (≈ 0.499 µg/mL)	0.31 µM (≈ 0.12 µg/mL)	5.17 µM (≈ 2 µg/mL)	0.31 µM (≈ 0.12 µg/mL)	10.3 µM (≈ 4 µg/mL)	0.65 µM (≈ 0.251 µg/mL)	0.31 µM (≈ 0.12 µg/mL)	0.31 µM (≈ 0.12 µg/mL)	0.31 µM (≈ 0.12 µg/mL)	10.3 µM (≈ 4 µg/mL)	0.31 µM (≈ 0.12 µg/mL)	10.3 µM (≈ 4 µg/mL)	16	2.59 µM (≈ 1 µg/mL)	0.31 µM (≈ 0.12 µg/mL)	0.65 µM (≈ 0.251 µg/mL)	33	0.31 µM (≈ 0.12 µg/mL)	7.09 µM	0.31 µM (≈ 0.12 µg/mL)	MBC (Staphylococcus aureus [15]): 10.3 µM (≈ 4 µg/mL); Ratio (Staphylococcus aureus [20]): 33; MBC (Enterococcus faecium [21]): > 82.8 µM; Ratio (Staphylococcus aureus [24]): 33; Ratio (Enterococcus faecalis [25]): >32; MBC (Enterococcus faecalis [26]): > 82.8 µM; MIC (Enterococcus faecium [27]): 1.29 µM (≈ 0.499 µg/mL); MIC [28]: 0.31 µM (≈ 0.12 µg/mL); MIC (Enterococcus faecium [29]): 1.29 µM (≈ 0.499 µg/mL); IC50 [30]: 8.9 µM; MIC [31]: 0.65 µM (≈ 0.251 µg/mL); MIC (Staphylococcus aureus [32]): 0.31 µM (≈ 0.12 µg/mL); Ratio (Enterococcus faecium [33]): >32; MIC (Staphylococcus aureus [34]): 0.65 µM (≈ 0.251 µg/mL)
O=C(Nc1ccc(Cl)cc1)Nc1ccc(Cl)c(C(F)(F)F)c1 [CLOFLUCARBAN]	1.43 µM (≈ 0.499 µg/mL)	0.72 µM (≈ 0.251 µg/mL)	2.86 µM (≈ 0.999 µg/mL)	0.34 µM (≈ 0.119 µg/mL)	> 22.9 µM	0.72 µM (≈ 0.251 µg/mL)	0.34 µM (≈ 0.119 µg/mL)	0.72 µM (≈ 0.251 µg/mL)	0.72 µM (≈ 0.251 µg/mL)	> 45.8 µM	0.34 µM (≈ 0.119 µg/mL)	> 45.8 µM	>32	1.43 µM (≈ 0.499 µg/mL)	0.72 µM (≈ 0.251 µg/mL)	1.43 µM (≈ 0.499 µg/mL)	>64	0.34 µM (≈ 0.119 µg/mL)	7.7 µM	0.72 µM (≈ 0.251 µg/mL)	MBC (Staphylococcus aureus [15]): > 22.9 µM; Ratio (Staphylococcus aureus [20]): >32; MBC (Enterococcus faecium [21]): > 91.7 µM; Ratio (Staphylococcus aureus [24]): >135; Ratio (Enterococcus faecalis [25]): >128; MBC (Enterococcus faecalis [26]): > 183 µM; MIC (Enterococcus faecium [27]): 1.43 µM (≈ 0.499 µg/mL); MIC [28]: 0.72 µM (≈ 0.251 µg/mL); MIC (Enterococcus faecium [29]): 2.86 µM (≈ 0.999 µg/mL); IC50 [30]: 4.5 µM; MIC [31]: 0.72 µM (≈ 0.251 µg/mL); MIC (Staphylococcus aureus [32]): 0.34 µM (≈ 0.119 µg/mL); Ratio (Enterococcus faecium [33]): >64; MIC (Staphylococcus aureus [34]): 0.72 µM (≈ 0.251 µg/mL)
O=C(Nc1ccc2c(c1)OC(F)(F)O2)Nc1ccc(Cl)c(C(F)(F)F)c1	10.1 µM (≈ 4 µg/mL)	0.63 µM (≈ 0.249 µg/mL)	10.1 µM (≈ 4 µg/mL)	0.63 µM (≈ 0.249 µg/mL)	5.07 µM (≈ 2 µg/mL)	1.27 µM (≈ 0.501 µg/mL)	0.63 µM (≈ 0.249 µg/mL)	0.63 µM (≈ 0.249 µg/mL)	0.63 µM (≈ 0.249 µg/mL)	2.53 µM (≈ 0.999 µg/mL)	0.63 µM (≈ 0.249 µg/mL)	2.53 µM (≈ 0.999 µg/mL)	8	5.07 µM (≈ 2 µg/mL)	1.27 µM (≈ 0.501 µg/mL)	1.27 µM (≈ 0.501 µg/mL)	4	0.63 µM (≈ 0.249 µg/mL)	5.68 µM	1.27 µM (≈ 0.501 µg/mL)	Ratio (Staphylococcus aureus [24]): 4; MIC (Enterococcus faecium [27]): 10.1 µM (≈ 4 µg/mL); MIC [28]: 1.27 µM (≈ 0.501 µg/mL); MIC (Enterococcus faecium [29]): 5.07 µM (≈ 2 µg/mL); IC50 [30]: 9.02 µM; MIC [31]: 1.27 µM (≈ 0.501 µg/mL); MIC (Staphylococcus aureus [32]): 1.27 µM (≈ 0.501 µg/mL); MIC (Staphylococcus aureus [34]): 0.63 µM (≈ 0.249 µg/mL)
